The target in one test is T1, human TRPV1 (Homo sapiens, UniProt Q8NER1).
T1 construct: expressed in transfected cells; host or cells: HEK293 (hTRPV1/HEK293), zeocin selection
As to the kind of experiment: Functional assay: block of capsaicin-induced Ca2+ influx, human assay (hTRPV1/HEK293, FLIPR). The settings on record: hTRPV1/HEK293 cells, 150 nM capsaicin challenge, Fluo-3 fluorescence; mean; > value = solubility limit in assay medium. The class given is cell-based. Summed up: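 HEK293 cells stably expressing human TRPV1, fluo3-loaded, preincubated 30 min with compound (serial 3-fold dilutions from 10 μM, duplicate) in 20 μM Ca2+ buffer. Capsaicin response taken as fluo3 fluorescence change before vs 100 s after agonist; IC50 by non-linear regression, mean values; free base or TFA salt.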

The target of the next test is T2, rat TRPV1 (Rattus norvegicus, UniProt O35433).
T2 construct: expressed in transfected cells; host or cells: HEK293 (rTRPV1/HEK293), geneticin selection
T2 sequence (O35433 whole entry): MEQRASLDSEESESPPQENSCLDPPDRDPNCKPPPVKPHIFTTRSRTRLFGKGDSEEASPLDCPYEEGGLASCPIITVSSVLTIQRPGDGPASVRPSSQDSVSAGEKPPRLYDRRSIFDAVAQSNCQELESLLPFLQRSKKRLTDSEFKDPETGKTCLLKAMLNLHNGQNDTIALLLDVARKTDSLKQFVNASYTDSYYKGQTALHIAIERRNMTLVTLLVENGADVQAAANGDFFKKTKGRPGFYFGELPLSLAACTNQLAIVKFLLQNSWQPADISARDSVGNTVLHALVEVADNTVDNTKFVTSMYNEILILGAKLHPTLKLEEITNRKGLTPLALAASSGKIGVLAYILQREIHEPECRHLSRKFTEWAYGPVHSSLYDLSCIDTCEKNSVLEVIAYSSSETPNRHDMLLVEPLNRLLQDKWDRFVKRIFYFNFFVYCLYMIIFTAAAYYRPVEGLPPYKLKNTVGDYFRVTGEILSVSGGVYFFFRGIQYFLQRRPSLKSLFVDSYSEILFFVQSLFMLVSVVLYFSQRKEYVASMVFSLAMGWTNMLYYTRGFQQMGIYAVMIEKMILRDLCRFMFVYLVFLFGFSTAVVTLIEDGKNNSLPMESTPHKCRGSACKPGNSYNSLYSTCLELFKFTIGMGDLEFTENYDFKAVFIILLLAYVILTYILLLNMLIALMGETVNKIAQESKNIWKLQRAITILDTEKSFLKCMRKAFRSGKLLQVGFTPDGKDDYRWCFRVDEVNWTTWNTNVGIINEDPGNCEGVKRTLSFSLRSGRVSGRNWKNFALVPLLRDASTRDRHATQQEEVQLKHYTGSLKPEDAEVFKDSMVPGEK
The test can be described thus: Functional assay: block of capsaicin-induced Ca2+ influx, rat assay (rTRPV1/HEK293, FLIPR). The class given is cell-based. Particulars: rTRPV1/HEK293 cells, capsaicin challenge, Fluo-3 fluorescence; mean; > value = solubility limit in assay medium. An outline of the steps:
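Compounds, as free base or TFA salt, tested from 10 μM in three-fold steps on rTRPV1-transfected HEK293 cells, with 30 min preincubation in low-calcium (20 μM) buffer. Capsaicin-evoked Ca2+ influx measured by FLIPR fluo3 signal before and 100 s after addition. Averaged IC50 from non-linear fits.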

A value given as a limit tells only on which side of the number the result lay.

Consider 28 compounds from patent publication US20080004253A1, “Thiazolopyrimidine modulators of TRPV1” (priority 2006, published 2008).

T1 sequence (Q8NER1 whole entry): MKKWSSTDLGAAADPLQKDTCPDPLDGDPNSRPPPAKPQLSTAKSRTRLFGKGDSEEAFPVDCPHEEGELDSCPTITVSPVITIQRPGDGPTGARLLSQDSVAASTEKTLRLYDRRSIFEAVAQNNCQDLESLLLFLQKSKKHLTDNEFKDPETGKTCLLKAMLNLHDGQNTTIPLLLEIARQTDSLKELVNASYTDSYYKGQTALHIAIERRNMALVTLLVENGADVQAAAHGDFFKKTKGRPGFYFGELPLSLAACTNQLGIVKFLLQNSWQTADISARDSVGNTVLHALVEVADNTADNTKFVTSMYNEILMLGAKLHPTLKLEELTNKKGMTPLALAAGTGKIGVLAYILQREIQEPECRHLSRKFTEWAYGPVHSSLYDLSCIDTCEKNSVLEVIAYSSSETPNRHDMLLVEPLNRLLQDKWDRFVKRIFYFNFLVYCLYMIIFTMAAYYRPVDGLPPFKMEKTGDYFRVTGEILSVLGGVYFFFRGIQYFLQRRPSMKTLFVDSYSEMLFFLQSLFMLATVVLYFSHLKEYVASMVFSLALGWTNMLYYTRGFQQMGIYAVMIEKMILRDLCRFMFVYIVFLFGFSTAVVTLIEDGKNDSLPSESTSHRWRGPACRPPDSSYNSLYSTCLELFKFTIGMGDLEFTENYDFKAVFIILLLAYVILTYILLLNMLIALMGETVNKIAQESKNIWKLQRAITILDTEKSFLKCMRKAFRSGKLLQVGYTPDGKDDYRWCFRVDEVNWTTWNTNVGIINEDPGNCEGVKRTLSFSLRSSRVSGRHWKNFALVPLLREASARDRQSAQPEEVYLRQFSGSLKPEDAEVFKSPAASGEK

What is called IC50 is the concentration at which inhibition is half-maximal. For `CC(=O)c1ccc(Nc2nc(C)nc3sc(Nc4c(Cl)cccc4Cl)nc23)cc1` [Example 86, 1-{4-[2-(2,6-Dichloro-phenylamino)-5-methyl-thiazolo[5,4-d]pyrimidin-7-ylamino]-phenyl}-ethanone], the half-maximal inhibitory concentration (IC50) turned out to be 5 nM against human TRPV1 and 3 nM against rat TRPV1.

`FC(F)(F)c1ccc(Nc2ncnc3sc(Nc4c(Cl)cccc4C(F)(F)F)nc23)cn1` [Example 19, N^2-(2-Chloro-6-trifluoromethyl-phenyl)-N^7-(6-trifluoromethyl-pyridin-3-yl)-thiazolo[5,4-d]pyrimidine-2,7-diamine]: the IC50 against human TRPV1 is 74 nM; against rat TRPV1, 31 nM.

For `COC[C@@H]1CCCN1c1nc(Nc2ccc(C(F)(F)F)cc2)c2nc(Nc3c(Cl)cccc3Cl)sc2n1` [Example 193, (2S)-N^2-(2,6-Dichloro-phenyl)-5-(2-methoxymethyl-pyrrolidin-1-yl)-N^7-(4-trifluoromethyl-phenyl)-thiazolo[5,4-d]pyrimidine-2,7-diamine], the 50% inhibitory concentration (IC50) against human TRPV1 was 35 nM; at rat TRPV1, 36 nM.

Consider `Cc1nc(Nc2ccc(C(C)C)cc2)c2nc(Nc3c(C)cccc3C)sc2n1` [Example 125, N^2-(2,6-Dimethyl-phenyl)-N^7-(4-isopropyl-phenyl)-5-methyl-thiazolo[5,4-d]pyrimidine-2,7-diamine], for which the IC50 against human TRPV1 was 123 nM; at rat TRPV1, 19 nM.

With `Cc1nc(Nc2ccc(N(C)S(C)(=O)=O)cc2)c2nc(Nc3c(Cl)cccc3Cl)sc2n1` [Example 152, N-{4-[2-(2,6-Dichloro-phenylamino)-5-methyl-thiazolo[5,4-d]pyrimidin-7-ylamino]-phenyl}-N-methyl-methanesulfonamide], the IC50 against human TRPV1 was 1220 nM; on rat TRPV1, 205 nM.

For the compound `FC(F)(F)c1ccc(Nc2nc(-c3ccccc3)nc3sc(Nc4c(Cl)cccc4Cl)nc23)cc1` [Example 70, N^2-(2,6-Dichloro-phenyl)-5-phenyl-N^7-(4-trifluoromethyl-phenyl)-thiazolo[5,4-d]pyrimidine-2,7-diamine], the IC50 against human TRPV1 came out at 225 nM; on rat TRPV1, 83 nM.

Regarding `Cc1cccc(C)c1Nc1nc2c(Nc3ccc(C#N)c(C(F)(F)F)c3)ncnc2s1` [Example 149, 4-[2-(2,6-Dimethyl-phenylamino)-thiazolo[5,4-d]pyrimidin-7-ylamino]-2-trifluoromethyl-benzonitrile], the IC50 is 737 nM against human TRPV1 and 257 nM at rat TRPV1.

Turning to `Fc1cc(Nc2ncnc3sc(Nc4c(Cl)cccc4Cl)nc23)ccc1C(F)(F)F` [Example 215, N^2-(2,6-Dichloro-phenyl)-N^7-(3-fluoro-4-trifluoromethyl-phenyl)-thiazolo[5,4-d]pyrimidine-2,7-diamine], the IC50 against human TRPV1 stood at 15 nM; against rat TRPV1, 8 nM.

Take `Cc1cccc(C)c1Nc1nc2c(Nc3ccc(Cl)cc3)ncnc2s1` [Example 132, N^7-(4-Chloro-phenyl)-N^2-(2,6-dimethyl-phenyl)-thiazolo[5,4-d]pyrimidine-2,7-diamine]: the IC50 against human TRPV1 was found to be 172 nM; against rat TRPV1, 73 nM.

Consider `FC(F)(F)c1ccc(Nc2ncnc3sc(Nc4c(Cl)cccc4Cl)nc23)cn1` [Example 2, N^2-(2,6-Dichloro-phenyl)-N^7-(6-trifluoromethyl-pyridin-3-yl)-thiazolo[5,4-d]pyrimidine-2,7-diamine], for which the results for the IC50 against human TRPV1 and at rat TRPV1 were 14 nM and 4 nM, respectively.

In the case of `FC(F)(F)c1ccc(Nc2ncnc3sc(Nc4ccccc4Cl)nc23)cn1` [Example 220, N^2-(2-Chlorophenyl)-N^7-[6-(trifluoromethyl)pyridin-3-yl][1,3]thiazolo[5,4-d]pyrimidine-2,7-diamine], the IC50 on human TRPV1 was 43 nM; against rat TRPV1 it was 38 nM.

For the compound `Cc1nc(Nc2ccc(C(F)(F)F)cc2)c2nc(Nc3c(Cl)cccc3Cl)sc2n1` [Example 5, N^2-(2,6-Dichloro-phenyl)-5-methyl-N^7-(4-trifluoromethyl-phenyl)-thiazolo[5,4-d]pyrimidine-2,7-diamine], the concentration for half-maximal inhibition (IC50) worked out at 3 nM against human TRPV1 and 2 nM at rat TRPV1.

`Cc1nc(Nc2ccc(C(F)(F)F)cc2)c2nc(Nc3ncccc3C)sc2n1` [Example 211, 5-Methyl-N^2-(3-methyl-pyridin-2-yl)-N^7-(4-trifluoromethyl-phenyl)-thiazolo[5,4-d]pyrimidine-2,7-diamine]: the IC50 against human TRPV1 and on rat TRPV1 was no less than 6670 nM each time.

In the case of `CC(C)CNc1nc(Nc2ccc(C(F)(F)F)cc2)c2nc(Nc3c(Cl)cccc3Cl)sc2n1` [Example 79, N^2-(2,6-Dichloro-phenyl)-N^5-isobutyl-N^7-(4-trifluoromethyl-phenyl)-thiazolo[5,4-d]pyrimidine-2,5,7-triamine], the results for the IC50 against human TRPV1 and on rat TRPV1 were 2 nM and 1 nM, respectively.

For the compound `Cc1nc(N(C)c2ccc(C(F)(F)F)cc2)c2nc(Nc3c(Cl)cccc3Cl)sc2n1` [Example 9, N^2-(2,6-Dichloro-phenyl)-5,N^7-dimethyl-N^7-(4-trifluoromethyl-phenyl)-thiazolo[5,4-d]pyrimidine-2,7-diamine], the IC50 against human TRPV1 and at rat TRPV1 was greater than 20000 nM in each case.

Consider `CS(=O)(=O)c1ccc(Nc2ncnc3sc(Nc4c(Cl)cc(C#N)cc4Cl)nc23)cc1` [Example 236, 3,5-Dichloro-4-[7-(4-methanesulfonyl-phenylamino)-thiazolo[5,4-d]pyrimidin-2-ylamino]-benzonitrile], for which the results for the concentration for half-maximal inhibition (IC50) on human TRPV1 and at rat TRPV1 were 115 nM and 38 nM, respectively.

As for `COc1cc(CNc2ncnc3sc(Nc4c(C)cccc4C)nc23)ccc1O` [Example 38, 4-{[2-(2,6-Dimethyl-phenylamino)-thiazolo[5,4-d]pyrimidin-7-ylamino]-methyl}-2-methoxy-phenol], the results for the IC50 against human TRPV1 and at rat TRPV1 were greater than 20000 nM and 7130 nM, respectively.

For the compound `Cc1cccc(C)c1Nc1nc2c(Nc3ccc(SC(C)C)cc3)ncnc2s1` [Example 112, N^2-(2,6-Dimethyl-phenyl)-NT-(4-isopropylsulfanyl-phenyl)-thiazolo[5,4-d]pyrimidine-2,7-diamine], the values for the IC50 against human TRPV1 and on rat TRPV1 were 36 nM and 56 nM, respectively.

On to `FC(F)(F)c1ccc(Nc2ncnc3sc(Nc4c(Cl)cc(CN5CCOCC5)cc4Cl)nc23)cc1` [Example 238, N^2-(2,6-Dichloro-4-morpholin-4-ylmethyl-phenyl)-N^7-(4-trifluoromethyl-phenyl)-thiazolo[5,4-d]pyrimidine-2,7-diamine], for which the values for the IC50 against human TRPV1 and against rat TRPV1 were 223 nM and 215 nM, respectively.

On to `Cc1cccc(C)c1Nc1nc2c(Nc3ccc(OC(F)(F)F)cc3)ncnc2s1` [Example 28, N^2-(2,6-Dimethyl-phenyl)-N^7-(4-trifluoromethoxy-phenyl)-thiazolo[5,4-d]pyrimidine-2,7-diamine], for which the IC50 at human TRPV1 was 81 nM; on rat TRPV1 it was 39 nM.

In the case of `COC(=O)c1scc(C)c1Nc1nc2c(Nc3ccc(C(F)(F)F)nc3)ncnc2s1` [Example 49, 4-Methyl-3-[7-(6-trifluoromethyl-pyridin-3-ylamino)-thiazolo[5,4-d]pyrimidin-2-ylamino]-thiophene-2-carboxylic acid methyl ester], the IC50 against human TRPV1 came to 375 nM; against rat TRPV1, 431 nM.

Take `Cc1nc(Nc2ccc(C(F)(F)F)nc2)c2nc(Nc3c(C)cccc3C)sc2n1` [Example 246, N^2-(2,6-Dimethyl-phenyl)-5-methyl-N^7-(6-trifluoromethyl-pyridin-3-yl)-thiazolo[5,4-d]pyrimidine-2,7-diamine]: the figures for the IC50 against human TRPV1 and against rat TRPV1 were 18 nM and 22 nM, respectively.

On to `Cc1cccc(C)c1Nc1nc2c(Nc3ccc(C(C)O)cc3)ncnc2s1` (racemic) [Example 140, (racemic)-1-{4-[2-(2,6-Dimethyl-phenylamino)-thiazolo[5,4-d]pyrimidin-7-ylamino]-phenyl}-ethanol], for which the IC50 against human TRPV1 was 324 nM; on rat TRPV1 it was 185 nM.

Turning to `COC(=O)C(C)(C)c1ccc(Nc2ncnc3sc(Nc4c(C)noc4C)nc23)cc1` [Example 222, Methyl 2-[4-({2-[(3,5-dimethylisoxazol-4-yl)amino][1,3]thiazolo[5,4-d]pyrimidin-7-yl}amino)phenyl]-2-methylpropanoate], the IC50 on human TRPV1 worked out at 100 nM; against rat TRPV1, 72 nM.

Turning to `COC(=O)c1scc(C)c1Nc1nc2c(Nc3ccc(C(F)(F)F)c(Cl)c3)ncnc2s1` [Example 207, 3-[7-(3-Chloro-4-trifluoromethyl-phenylamino)-thiazolo[5,4-d]pyrimidin-2-ylamino]-4-methyl-thiophene-2-carboxylic acid methyl ester], the IC50 turned out to be 758 nM on human TRPV1 and 345 nM on rat TRPV1.

In the case of `Cc1cccc(C)c1Nc1nc2c(Nc3ccc(Br)cc3)ncnc2s1` [Example 123, N^7-(4-Bromo-phenyl)-N^2-(2,6-dimethyl-phenyl)-thiazolo[5,4-d]pyrimidine-2,7-diamine], the values for the IC50 against human TRPV1 and against rat TRPV1 were 97 nM and 59 nM, respectively.

Regarding `OCC1CN(c2nc(Nc3ccc(C(F)(F)F)cc3)c3nc(Nc4c(Cl)cccc4Cl)sc3n2)CCO1` (racemic) [Example 146, (racemic)-{4-[2-(2,6-Dichloro-phenylamino)-7-(4-trifluoromethyl-phenylamino)-thiazolo[5,4-d]pyrimidin-5-yl]-morpholin-2-yl}-methanol], the IC50 against human TRPV1 was found to be 646 nM; against rat TRPV1, 319 nM.

Take `Cc1noc(C)c1Nc1nc2c(Nc3ccc(C(F)(F)F)nc3)ncnc2s1` [Example 24, N^2-(3,5-Dimethyl-isoxazol-4-yl)-N^7-(6-trifluoromethyl-pyridin-3-yl)-thiazolo[5,4-d]pyrimidine-2,7-diamine]: the values for the IC50 at human TRPV1 and on rat TRPV1 were 2360 nM and 709 nM, respectively.
